From patent US10160753B2, “Indazole compounds as IRAK4 inhibitors” (Aurigene Discovery Technologies Limited, priority 2014, dated 2018)
Counter-ions that a name gives are not always drawn.

Biological target: T1, recombinant IRAK-4 kinase (Homo sapiens, UniProt Q9NWZ3)
T1 construct: purchased Millipore, USA
T1 sequence (Q9NWZ3 1-460): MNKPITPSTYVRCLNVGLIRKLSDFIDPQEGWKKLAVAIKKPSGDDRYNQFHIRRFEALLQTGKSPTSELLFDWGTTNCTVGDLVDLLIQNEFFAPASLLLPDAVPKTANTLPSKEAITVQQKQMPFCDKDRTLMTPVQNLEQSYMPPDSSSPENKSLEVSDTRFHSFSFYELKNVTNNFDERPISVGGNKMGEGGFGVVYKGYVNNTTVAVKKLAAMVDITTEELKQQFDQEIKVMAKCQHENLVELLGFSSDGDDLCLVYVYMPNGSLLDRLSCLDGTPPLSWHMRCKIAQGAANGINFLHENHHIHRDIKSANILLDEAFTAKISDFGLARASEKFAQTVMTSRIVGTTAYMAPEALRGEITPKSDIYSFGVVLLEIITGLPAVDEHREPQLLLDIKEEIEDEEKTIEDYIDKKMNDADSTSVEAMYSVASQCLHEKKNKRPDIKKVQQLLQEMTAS
Assay: IRAK-4 Biochemical Assay (TR-FRET)
Details: 30 min pre-incubation, 100 nM Biotin Histone H3, 20 μM ATP, read-out: IC50 values for IRAK4 activity
Protocol: Compounds were tested for their potential to inhibit IRAK-4 enzyme in a TR-FRET assay using recombinant IRAK-4 kinase from Millipore, USA. The assay buffer was 50 mM Tris-HCl pH 7.5, 20 mM MgCl2, 1 mM EGTA, 2 mM DTT, 3 mM MnCl2 and 0.01% Tween 20.5 ng of IRAK-4 kinase was used for the assay. After pre-incubation of enzyme with test compound for 30 minutes at room temperature, a substrate mixture containing 100 nM Biotin Histone H3 (Millipore, USA) and 20 μM ATP (Sigma, USA) was added and the reaction was incubated for 30 min. Post incubation, the reaction was stopped by the addition of stop mix containing 40 mM EDTA, 1 nM of Europium-Anti-Phospho-Histone H3 (Ser10) antibody (Perkin Elmer, USA) and 20 nM SureLight Allophycocyanin-Streptavidin (Perkin Elmer, USA). The fluorescence emission at 615 nm and 665 nm were measured at an excitation of 340 nm and the percent inhibition was estimated from the ratio of the fluorescence intensities [(F665/F615)×10000]. The compounds were initially screened at 1 μM and 10 μM concentrations and potent compounds (>50% inhibition at 1 μM) were taken for dose response studies. The IC50 values were estimated by fitting the dose-response data to sigmoidal dose response (variable slope), curve fitting program using Graphpad Prism software Version 6.01.

Compound | IC50 [nM]
Cc1cc(-c2nc(C(=O)Nc3cc4c(C)nn(C)c4cc3N3CCC(O)CC3)co2)ccn1 [Example 81, N-(6-(4-hydroxypiperidin-1-yl)-1,3-dimethyl-1H-indazol-5-yl)-2-(2-methylpyridin-4-yl)oxazole-4-carboxamide] | < 50
Cc1cc(-c2nc(C(=O)Nc3cc4cn(C)nc4cc3N3CCCC(CO)C3)co2)ccn1 (centres unmarked) [Example 82, N-(6-(3-(hydroxymethyl)piperidin-1-yl)-2-methyl-2H-indazol-5-yl)-2-(2-methylpyridin-4-yl)oxazole-4-carboxamide] | < 50
Cc1cc(-c2nc(C(=O)Nc3cc4c(C)n(C)nc4cc3N3CCC(O)CC3)co2)ccn1 [Example 83, N-(6-(4-hydroxypiperidin-1-yl)-2,3-dimethyl-2H-indazol-5-yl)-2-(2-methylpyridin-4-yl)oxazole-4-carboxamide] | < 50
CC(=O)Nc1cc(-c2nc(C(=O)Nc3cc4cn(C)nc4cc3N3CCCCC3)co2)ccn1 [Example 84, 2-(2-acetamidopyridin-4-yl)-N-(2-methyl-6-(piperidin-1-yl)-2H-indazol-5-yl)oxazole-4-carboxamide] | < 50
CC(=O)Nc1cc(-c2nc(C(=O)Nc3cc4cn(C)nc4cc3N3CCCC(F)C3)co2)ccn1 (centres unmarked) [Example 85, 2-(2-acetamidopyridin-4-yl)-N-(6-(3-fluoropiperidin-1-yl)-2-methyl-2H-indazol-5-yl)oxazole-4-carboxamide] | < 50
Cn1cc2cc(NC(=O)c3coc(-c4ccnc(N)c4)n3)c(N3CCCCC3)cc2n1 [Example 86, 2-(2-aminopyridin-4-yl)-N-(2-methyl-6-(piperidin-1-yl)-2H-indazol-5-yl)oxazole-4-carboxamide hydrochloride] | < 50
Cc1cc(-c2nc(C(=O)Nc3cc4c(C)nn(C)c4cc3N3CCC(F)CC3)co2)ccn1 [Example 87, N-(6-(4-fluoropiperidin-1-yl)-1,3-dimethyl-1H-indazol-5-yl)-2-(2-methylpyridin-4-yl)oxazole-4-carboxamide] | < 50
Cc1cc(-c2nc(C(=O)Nc3cc4cn(C)nc4cc3N[C@H]3CC[C@H](O)CC3)co2)ccn1 [Example 88, N-(6-(((1R,4R)-4-hydroxycyclohexyl)amino)-2-methyl-2H-indazol-5-yl)-2-(2-methylpyridin-4-yl)oxazole-4-carboxamide] | < 50
Cc1cc(-c2nc(C(=O)Nc3cc4cnn(C)c4cc3N3CCC(CO)CC3)co2)ccn1 [Example 89, N-(6-(4-(hydroxymethyl)piperidin-1-yl)-1-methyl-1H-indazol-5-yl)-2-(2-methylpyridin-4-yl)oxazole-4-carboxamide] | < 50
Cn1cc2cc(NC(=O)c3coc(-c4ccnc(N)c4)n3)c(N3CCC(F)CC3)cc2n1 [Example 90, 2-(2-aminopyridin-4-yl)-N-(6-(4-fluoropiperidin-1-yl)-2-methyl-2H-indazol-5-yl)oxazole-4-carboxamide hydrochloride] | < 50
Cc1cc(-c2nc(C(=O)Nc3cc4cn(C)nc4cc3N3CCC(F)CC3)co2)ccn1 [Example 91, N-(6-(4-fluoropiperidin-1-yl)-2-methyl-2H-indazol-5-yl)-2-(2-methylpyridin-4-yl)oxazole-4-carboxamide hydrochloride] | < 50
C[C@H](O)Cn1cc(-c2cccc(C(=O)Nc3cc4cn(C)nc4cc3N3CCC(CO)CC3)n2)cn1 [Example 92, (S)—N-(6-(4-(hydroxymethyl)piperidin-1-yl)-2-methyl-2H-indazol-5-yl)-6-(1-(2-hydroxypropyl)-1H-pyrazol-4-yl)picolinamide] | < 50
Cn1cc2cc(NC(=O)c3coc(-c4ccnc(N)c4)n3)c(N3CCC(O)CC3)cc2n1 [Example 93, 2-(2-aminopyridin-4-yl)-N-(6-(4-hydroxypiperidin-1-yl)-2-methyl-2H-indazol-5-yl)oxazole-4-carboxamide hydrochloride] | < 50
COCCn1ncc2cc(NC(=O)c3coc(-c4ccnc(C)c4)n3)c(N3CCC(CO)CC3)cc21 [Example 94, N-(6-(4-(hydroxymethyl)piperidin-1-yl)-1-(2-methoxyethyl)-1H-indazol-5-yl)-2-(2-methylpyridin-4-yl)oxazole-4-carboxamide] | < 50
C[C@H](O)Cn1cc(-c2cccc(C(=O)Nc3cc4cnn(C)c4cc3N3CCC(CO)CC3)n2)cn1 [Example 95, (S)—N-(6-(4-(hydroxymethyl)piperidin-1-yl)-1-methyl-1H-indazol-5-yl)-6-(1-(2-hydroxypropyl)-1H-pyrazol-4-yl)picolinamide] | > 100

Results, then the compound that gave them:

IC50 [nM] | Compound
< 50 | Cc1cc(-c2ccc(C(=O)Nc3cc4cn(C)nc4cc3N3CCC(O)CC3)o2)ccn1 [Example 67, N-(6-(4-hydroxypiperidin-1-yl)-2-methyl-2H-indazol-5-yl)-5-(2-methylpyridin-4-yl)furan-2-carboxamide]
< 50 | Cc1cc(-c2nc(C(=O)Nc3cc4cn(C)nc4cc3N3CCCC(O)C3)co2)ccn1 (centres unmarked) [Example 68, N-(6-(3-hydroxypiperidin-1-yl)-2-methyl-2H-indazol-5-yl)-2-(2-methylpyridin-4-yl)oxazole-4-carboxamide]
< 50 | Cc1cc(-c2ccc(C(=O)Nc3cc4cn(C)nc4cc3N3CCC[C@@H](O)C3)o2)ccn1 [Example 69, (R)—N-(6-(3-hydroxypiperidin-1-yl)-2-methyl-2H-indazol-5-yl)-5-(2-methylpyridin-4-yl)furan-2-carboxamide]
< 50 | Cc1cc(-c2ccc(C(=O)Nc3cc4cn(C)nc4cc3N3CCCC(O)C3)o2)ccn1 (centres unmarked) [Example 70, N-(6-(3-hydroxypiperidin-1-yl)-2-methyl-2H-indazol-5-yl)-5-(2-methylpyridin-4-yl)furan-2-carboxamide]
< 50 | Cc1cc(-c2nc(C(=O)Nc3cc4cn(C)nc4cc3N3CCCCCC3)co2)ccn1 [Example 71, N-(6-(azepan-1-yl)-2-methyl-2H-indazol-5-yl)-2-(2-methylpyridin-4-yl)oxazole-4-carboxamide]
< 50 | Cc1cc(-c2nc(C(=O)Nc3cc4cnn(C)c4cc3N3CCCCCC3)co2)ccn1 [Example 72, N-(6-(azepan-1-yl)-1-methyl-1H-indazol-5-yl)-2-(2-methylpyridin-4-yl)oxazole-4-carboxamide]
< 50 | Cc1cc(-c2nc(C(=O)Nc3cc4c(C)n(C)nc4cc3N3CCCCC3)co2)ccn1 [Example 73, N-(2,3-dimethyl-6-(piperidin-1-yl)-2H-indazol-5-yl)-2-(2-methylpyridin-4-yl)oxazole-4-carboxamide]
< 50 | Cc1cc(-c2nc(C(=O)Nc3cc4c(C)nn(C)c4cc3N3CCCCC3)co2)ccn1 [Example 74, N-(1,3-dimethyl-6-(piperidin-1-yl)-1H-indazol-5-yl)-2-(2-methylpyridin-4-yl)oxazole-4-carboxamide]
< 50 | COCCn1ncc2cc(NC(=O)c3coc(-c4ccnc(C)c4)n3)c(N3CCC(O)CC3)cc21 [Example 75, N-(6-(4-hydroxypiperidin-1-yl)-1-(2-methoxyethyl)-1H-indazol-5-yl)-2-(2-methylpyridin-4-yl)oxazole-4-carboxamide]
< 50 | COCCn1cc2cc(NC(=O)c3coc(-c4ccnc(C)c4)n3)c(N3CCC(O)CC3)cc2n1 [Example 76, N-(6-(4-hydroxypiperidin-1-yl)-2-(2-methoxyethyl)-2H-indazol-5-yl)-2-(2-methylpyridin-4-yl)oxazole-4-carboxamide]
< 50 | Cc1cc(-c2nc(C(=O)Nc3cc4cnn(C)c4cc3N3CCC(O)CC3)co2)ccn1 [Example 77, N-(6-(4-hydroxypiperidin-1-yl)-1-methyl-1H-indazol-5-yl)-2-(2-methylpyridin-4-yl)oxazole-4-carboxamide]
< 50 | Cc1cc(-c2nc(C(=O)Nc3cc4cnn(C)c4cc3N3CCC(F)CC3)co2)ccn1 [Example 78, N-(6-(4-fluoropiperidin-1-yl)-1-methyl-1H-indazol-5-yl)-2-(2-methylpyridin-4-yl)oxazole-4-carboxamide]
< 50 | Cc1cc(-c2nc(C(=O)Nc3cc4cn(C)nc4cc3N3CCCC(F)C3)co2)ccn1 (centres unmarked) [Example 79, N-(6-(3-fluoropiperidin-1-yl)-2-methyl-2H-indazol-5-yl)-2-(2-methylpyridin-4-yl)oxazole-4-carboxamide]
< 50 | Cc1cc(-c2nc(C(=O)Nc3cc4cn(C)nc4cc3N3CCC(CO)CC3)co2)ccn1 [Example 80, N-(6-(4-(hydroxymethyl)piperidin-1-yl)-2-methyl-2H-indazol-5-yl)-2-(2-methylpyridin-4-yl)oxazole-4-carboxamide]
